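Test compounds were applied to cells in 96-well plates for 48 hours at 5 doses. GI50 marks 50% less growth. TGI marks complete inhibition of growth.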
Legend:
Assay in all cases: growth of human tumour cells (NCI), 48 h
786-0 renal = tested on: 786-0 renal
A498 renal = tested on: A498 renal
A549 NSCLC = tested on: A549 NSCLC
ACHN renal = tested on: ACHN renal
BT-549 breast = tested on: BT-549 breast
CAKI-1 renal = tested on: CAKI-1 renal
CCRF-CEM leukemia = tested on: CCRF-CEM leukemia
COLO 205 colon = tested on: COLO 205 colon
DU-145 prostate = tested on: DU-145 prostate
EKVX NSCLC = tested on: EKVX NSCLC
HCC-2998 colon = tested on: HCC-2998 colon
HCT-116 colon = tested on: HCT-116 colon
HCT-15 colon = tested on: HCT-15 colon
HL-60(TB) leukemia = tested on: HL-60(TB) leukemia
HOP-62 NSCLC = tested on: HOP-62 NSCLC
HOP-92 NSCLC = tested on: HOP-92 NSCLC
HS 578T breast = tested on: HS 578T breast
HT29 colon = tested on: HT29 colon
IGROV1 ovarian = tested on: IGROV1 ovarian
K-562 leukemia = tested on: K-562 leukemia
KM12 colon = tested on: KM12 colon
LOX IMVI melanoma = tested on: LOX IMVI melanoma
M14 melanoma = tested on: M14 melanoma
MALME-3M melanoma = tested on: MALME-3M melanoma
MCF7 breast = tested on: MCF7 breast
MDA-MB-231 breast = tested on: MDA-MB-231 breast
MDA-MB-435 = tested on: MDA-MB-435
MOLT-4 leukemia = tested on: MOLT-4 leukemia
NCI-H226 lung = tested on: NCI-H226 lung
NCI-H23 lung = tested on: NCI-H23 lung
NCI-H460 lung = tested on: NCI-H460 lung
NCI-H522 lung = tested on: NCI-H522 lung
NCI/ADR-RES ovarian = tested on: NCI/ADR-RES ovarian
OVCAR-3 ovarian = tested on: OVCAR-3 ovarian
OVCAR-4 ovarian = tested on: OVCAR-4 ovarian
OVCAR-5 ovarian = tested on: OVCAR-5 ovarian
OVCAR-8 ovarian = tested on: OVCAR-8 ovarian
PC-3 prostate = tested on: PC-3 prostate
RPMI-8226 leukemia = tested on: RPMI-8226 leukemia
RXF 393 renal = tested on: RXF 393 renal
SF-268 CNS = tested on: SF-268 CNS
SF-295 CNS = tested on: SF-295 CNS
SF-539 CNS = tested on: SF-539 CNS
SK-MEL-2 melanoma = tested on: SK-MEL-2 melanoma
SK-MEL-28 melanoma = tested on: SK-MEL-28 melanoma
SK-MEL-5 melanoma = tested on: SK-MEL-5 melanoma
SK-OV-3 ovarian = tested on: SK-OV-3 ovarian
SN12C renal = tested on: SN12C renal
SNB-19 CNS = tested on: SNB-19 CNS
SNB-75 CNS = tested on: SNB-75 CNS
SR leukemia = tested on: SR leukemia
SW-620 colon = tested on: SW-620 colon
T-47D breast = tested on: T-47D breast
TK-10 renal = tested on: TK-10 renal
U251 CNS = tested on: U251 CNS
UACC-257 melanoma = tested on: UACC-257 melanoma
UACC-62 melanoma = tested on: UACC-62 melanoma
UO-31 renal = tested on: UO-31 renal

Question: `CN(C)CCN=c1nc2c(c(N)n1-c1ccccc1)c(=S)n(-c1ccccc1)c(=S)n2-c1ccccc1` was tested. Which GI50 (786-0 renal) did it give?
Answer: 1.33 µM

Question: And the TGI (786-0 renal)?
Answer: 3.93 µM

Question: What about the GI50 (A498 renal) of the same molecule?
Answer: 1.24 µM

Question: What about the TGI (A498 renal) of the same molecule?
Answer: 4.08 µM

Question: And the GI50 (A549 NSCLC)?
Answer: 4.86 µM

Question: What about the TGI (A549 NSCLC) of the same molecule?
Answer: 19.8 µM

Question: What about the GI50 (ACHN renal) of the same molecule?
Answer: 2.89 µM

Question: And the TGI (ACHN renal)?
Answer: 9.71 µM

Question: And the GI50 (BT-549 breast)?
Answer: 3.21 µM

Question: What about the TGI (BT-549 breast) of the same molecule?
Answer: 13.3 µM

Question: What about the GI50 (CAKI-1 renal) of the same molecule?
Answer: 2.16 µM

Question: What about the TGI (CAKI-1 renal) of the same molecule?
Answer: 14.1 µM

Question: What about the GI50 (CCRF-CEM leukemia) of the same molecule?
Answer: 4.68 µM

Question: What about the GI50 (COLO 205 colon) of the same molecule?
Answer: 1.52 µM

Question: And the TGI (COLO 205 colon)?
Answer: 3.32 µM

Question: What about the GI50 (DU-145 prostate) of the same molecule?
Answer: 4.91 µM

Question: And the TGI (DU-145 prostate)?
Answer: 17.7 µM

Question: And the GI50 (EKVX NSCLC)?
Answer: 11 µM

Question: And the TGI (EKVX NSCLC)?
Answer: 27.2 µM

Question: What about the GI50 (HCC-2998 colon) of the same molecule?
Answer: 2.05 µM

Question: What about the TGI (HCC-2998 colon) of the same molecule?
Answer: 5.33 µM

Question: And the GI50 (HCT-116 colon)?
Answer: 2.24 µM

Question: And the TGI (HCT-116 colon)?
Answer: 9.38 µM

Question: And the GI50 (HCT-15 colon)?
Answer: 1.17 µM

Question: And the TGI (HCT-15 colon)?
Answer: 3.73 µM

Question: What about the GI50 (HL-60(TB) leukemia) of the same molecule?
Answer: 1.52 µM

Question: And the TGI (HL-60(TB) leukemia)?
Answer: 3.3 µM

Question: And the GI50 (HOP-62 NSCLC)?
Answer: 2.73 µM

Question: And the TGI (HOP-62 NSCLC)?
Answer: 10.8 µM

Question: And the GI50 (HOP-92 NSCLC)?
Answer: 1.62 µM

Question: And the TGI (HOP-92 NSCLC)?
Answer: 12.6 µM

Question: And the GI50 (HS 578T breast)?
Answer: 1.98 µM

Question: And the TGI (HS 578T breast)?
Answer: 9.51 µM

Question: What about the GI50 (HT29 colon) of the same molecule?
Answer: 1.48 µM

Question: And the TGI (HT29 colon)?
Answer: 3.82 µM

Question: And the GI50 (IGROV1 ovarian)?
Answer: 8.09 µM

Question: What about the TGI (IGROV1 ovarian) of the same molecule?
Answer: 23 µM

Question: What about the GI50 (K-562 leukemia) of the same molecule?
Answer: 3.6 µM

Question: What about the GI50 (KM12 colon) of the same molecule?
Answer: 3.8 µM

Question: What about the TGI (KM12 colon) of the same molecule?
Answer: 14.2 µM

Question: And the GI50 (LOX IMVI melanoma)?
Answer: 1.38 µM

Question: What about the TGI (LOX IMVI melanoma) of the same molecule?
Answer: 2.71 µM

Question: And the GI50 (M14 melanoma)?
Answer: 1.69 µM

Question: What about the TGI (M14 melanoma) of the same molecule?
Answer: 3.81 µM

Question: And the GI50 (MALME-3M melanoma)?
Answer: 2.04 µM

Question: What about the TGI (MALME-3M melanoma) of the same molecule?
Answer: 3.93 µM

Question: And the GI50 (MCF7 breast)?
Answer: 1.9 µM

Question: And the TGI (MCF7 breast)?
Answer: 7.39 µM

Question: And the GI50 (MDA-MB-231 breast)?
Answer: 1.16 µM

Question: And the TGI (MDA-MB-231 breast)?
Answer: 4.05 µM

Question: And the GI50 (MDA-MB-435)?
Answer: 1.75 µM

Question: And the TGI (MDA-MB-435)?
Answer: 3.9 µM

Question: What about the GI50 (MOLT-4 leukemia) of the same molecule?
Answer: 2.79 µM

Question: And the TGI (MOLT-4 leukemia)?
Answer: > 21.6 µM

Question: What about the GI50 (NCI-H226 lung) of the same molecule?
Answer: 13 µM

Question: And the TGI (NCI-H226 lung)?
Answer: 27.6 µM

Question: And the GI50 (NCI-H23 lung)?
Answer: 13.2 µM

Question: What about the TGI (NCI-H23 lung) of the same molecule?
Answer: 31.9 µM

Question: What about the GI50 (NCI-H460 lung) of the same molecule?
Answer: 2.33 µM

Question: And the TGI (NCI-H460 lung)?
Answer: 6.29 µM

Question: And the GI50 (NCI-H522 lung)?
Answer: 2.39 µM

Question: And the TGI (NCI-H522 lung)?
Answer: 6.82 µM

Question: What about the GI50 (NCI/ADR-RES ovarian) of the same molecule?
Answer: 10.4 µM

Question: What about the TGI (NCI/ADR-RES ovarian) of the same molecule?
Answer: 26.7 µM

Question: And the GI50 (OVCAR-3 ovarian)?
Answer: 2.89 µM

Question: What about the TGI (OVCAR-3 ovarian) of the same molecule?
Answer: 11.6 µM

Question: What about the GI50 (OVCAR-4 ovarian) of the same molecule?
Answer: 2.98 µM

Question: What about the TGI (OVCAR-4 ovarian) of the same molecule?
Answer: 9.01 µM

Question: And the GI50 (OVCAR-5 ovarian)?
Answer: 9.95 µM

Question: And the TGI (OVCAR-5 ovarian)?
Answer: 25.5 µM

Question: What about the GI50 (OVCAR-8 ovarian) of the same molecule?
Answer: 4.76 µM

Question: And the TGI (OVCAR-8 ovarian)?
Answer: 17.6 µM

Question: What about the GI50 (PC-3 prostate) of the same molecule?
Answer: 4.58 µM

Question: What about the TGI (PC-3 prostate) of the same molecule?
Answer: 27.7 µM

Question: What about the GI50 (RPMI-8226 leukemia) of the same molecule?
Answer: 0.587 µM

Question: What about the GI50 (RXF 393 renal) of the same molecule?
Answer: 2.62 µM

Question: And the TGI (RXF 393 renal)?
Answer: 7.8 µM

Question: What about the GI50 (SF-268 CNS) of the same molecule?
Answer: 3.34 µM

Question: What about the TGI (SF-268 CNS) of the same molecule?
Answer: 15.1 µM

Question: What about the GI50 (SF-295 CNS) of the same molecule?
Answer: 2.31 µM

Question: What about the TGI (SF-295 CNS) of the same molecule?
Answer: 6.37 µM

Question: And the GI50 (SF-539 CNS)?
Answer: 1.68 µM

Question: What about the TGI (SF-539 CNS) of the same molecule?
Answer: 3.29 µM

Question: And the GI50 (SK-MEL-2 melanoma)?
Answer: 1.73 µM

Question: And the TGI (SK-MEL-2 melanoma)?
Answer: 3.4 µM

Question: What about the GI50 (SK-MEL-28 melanoma) of the same molecule?
Answer: 0.867 µM

Question: What about the TGI (SK-MEL-28 melanoma) of the same molecule?
Answer: 2.33 µM

Question: And the GI50 (SK-MEL-5 melanoma)?
Answer: 1.49 µM

Question: What about the TGI (SK-MEL-5 melanoma) of the same molecule?
Answer: 2.93 µM

Question: What about the GI50 (SK-OV-3 ovarian) of the same molecule?
Answer: 6.96 µM

Question: And the TGI (SK-OV-3 ovarian)?
Answer: 20.9 µM

Question: And the GI50 (SN12C renal)?
Answer: 6.21 µM

Question: And the TGI (SN12C renal)?
Answer: 20.5 µM

Question: And the GI50 (SNB-19 CNS)?
Answer: 3.86 µM

Question: What about the TGI (SNB-19 CNS) of the same molecule?
Answer: 16.7 µM

Question: And the GI50 (SNB-75 CNS)?
Answer: 2.3 µM

Question: What about the TGI (SNB-75 CNS) of the same molecule?
Answer: 7.27 µM

Question: And the GI50 (SR leukemia)?
Answer: 1.36 µM

Question: What about the TGI (SR leukemia) of the same molecule?
Answer: 3.34 µM

Question: What about the GI50 (SW-620 colon) of the same molecule?
Answer: 1.93 µM

Question: What about the TGI (SW-620 colon) of the same molecule?
Answer: 4.87 µM

Question: What about the GI50 (T-47D breast) of the same molecule?
Answer: 1.88 µM

Question: What about the TGI (T-47D breast) of the same molecule?
Answer: 4.34 µM

Question: What about the GI50 (TK-10 renal) of the same molecule?
Answer: 2.36 µM

Question: And the TGI (TK-10 renal)?
Answer: 10.1 µM

Question: What about the GI50 (U251 CNS) of the same molecule?
Answer: 1.4 µM

Question: And the TGI (U251 CNS)?
Answer: 3.19 µM

Question: And the GI50 (UACC-257 melanoma)?
Answer: 1.91 µM

Question: And the TGI (UACC-257 melanoma)?
Answer: 3.75 µM

Question: What about the GI50 (UACC-62 melanoma) of the same molecule?
Answer: 1.78 µM

Question: What about the TGI (UACC-62 melanoma) of the same molecule?
Answer: 3.41 µM

Question: And the GI50 (UO-31 renal)?
Answer: 1.48 µM

Question: What about the TGI (UO-31 renal) of the same molecule?
Answer: 3.83 µM
